Results reported in PMC9120017, “Inhibition mechanism of the chloride channel TMEM16A by the pore blocker 1PBC” (Nature Communications, 2022).
Like-named read-outs stand apart in the source and are kept apart here.

Biological target: T1, mouse TMEM16A mutant K603Q (Mus musculus, UniProt Q8BHY3, K603Q)
T1 construct: expressed in transfected cells; host or cells: HEK293T
T1 sequence (Q8BHY3 1-960 K603Q): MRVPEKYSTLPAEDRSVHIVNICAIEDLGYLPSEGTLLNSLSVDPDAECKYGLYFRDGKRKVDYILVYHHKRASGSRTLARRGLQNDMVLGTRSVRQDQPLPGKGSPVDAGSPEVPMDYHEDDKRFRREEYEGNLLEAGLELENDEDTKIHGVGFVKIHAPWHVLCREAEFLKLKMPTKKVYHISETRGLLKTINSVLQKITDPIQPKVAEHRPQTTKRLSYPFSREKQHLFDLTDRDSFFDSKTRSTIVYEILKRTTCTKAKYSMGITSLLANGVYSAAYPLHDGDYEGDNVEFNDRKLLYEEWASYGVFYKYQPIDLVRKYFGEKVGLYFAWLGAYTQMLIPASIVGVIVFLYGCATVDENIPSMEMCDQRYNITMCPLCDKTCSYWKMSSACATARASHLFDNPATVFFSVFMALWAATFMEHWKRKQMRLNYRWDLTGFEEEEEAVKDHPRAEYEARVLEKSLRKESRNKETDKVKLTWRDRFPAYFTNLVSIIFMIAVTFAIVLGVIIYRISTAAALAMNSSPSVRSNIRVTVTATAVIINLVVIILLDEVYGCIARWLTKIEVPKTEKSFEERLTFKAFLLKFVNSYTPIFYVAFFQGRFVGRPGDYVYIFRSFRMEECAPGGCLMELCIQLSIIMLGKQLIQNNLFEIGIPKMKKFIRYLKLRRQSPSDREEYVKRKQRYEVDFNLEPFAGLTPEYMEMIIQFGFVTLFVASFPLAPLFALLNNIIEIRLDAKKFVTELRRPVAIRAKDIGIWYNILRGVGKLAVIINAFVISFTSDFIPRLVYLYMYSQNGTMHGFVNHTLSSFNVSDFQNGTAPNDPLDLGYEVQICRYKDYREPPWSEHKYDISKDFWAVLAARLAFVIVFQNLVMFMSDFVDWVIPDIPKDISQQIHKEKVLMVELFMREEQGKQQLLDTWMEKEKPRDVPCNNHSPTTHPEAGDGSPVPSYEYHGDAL
Assay: Inside-out patch recording of 1PBC block, mutant K603Q
Type: cell-based
Description: HEK293T cells (ATCC CRL-1573) were maintained in Dulbecco’s modified Eagle’s medium (DMEM; Sigma-Aldrich) supplemented with 10 U ml^−1 penicillin, 0.1 mg ml^−1 streptomycin (Sigma-Aldrich), 2 mM L-glutamine (Sigma-Aldrich), and 10% FBS (Sigma-Aldrich) in a humidified atmosphere containing 5% CO2 at 37 °C. HEK293S GnTI^− cells (ATCC CRL-3022) were maintained in HyClone HyCell TransFx-H medium (GE Healthcare) supplemented with 10 U ml^−1 penicillin, 0.1 mg ml^−1 streptomycin, 4 mM L-glutamine, 0.15% poloxamer 188 (Sigma-Aldrich), and 1% FBS in an atmosphere containing 5% CO2 at 185 rpm at 37 °C. The ac splice variant of mouse TMEM16A (UniProt ID: Q8BHY3), mouse TMEM16B (UniProt ID: Q8CFW1), or mouse TMEM16F (UniProt ID: Q6P9J9) bearing a 3C cleavage site, a Venus YFP, a Myc tag, and a Streptavidin-binding peptide (SBP) downstream of the open reading frame in a modified pcDNA3.1 vector (Invitrogen) were used as described previously[21],[31]. Mutations were introduced using a modified QuikChange method[58] and were verified by sequencing.
HEK293T cells were transfected with 3–4 μg DNA per 6 cm Petri dish using the calcium phosphate co-precipitation method and were used within 24–96 h after transfection. Recordings were performed on inside-out patches excised from HEK293T cells expressing the construct of interest. Patch pipettes were pulled from borosilicate glass capillaries (O.D. 1.5 mm, I.D. 0.86 mm, Sutter Instrument) and were fire-polished with a microforge (Narishige) before use. Pipette resistance was typically 3–8 MΩ when filled with the recording solutions detailed below. Seal resistance was typically 4 GΩ or higher. Voltage-clamp recordings were made using Axopatch 200B, Digidata 1550, and Clampex 10.7 (Molecular Devices). Analog signals were filtered with the in-built 4-pole Bessel filter at 10 kHz and were digitized at 20 kHz. Solution exchange was achieved using a gravity-fed system through a theta glass pipette mounted on an ultra-fast piezo-driven stepper (Siskiyou). […] All recordings were performed at 20 °C.
A symmetrical ionic condition was used throughout. Stock solution with Ca^2+-EGTA contained 150 mM NaCl, 5.99 mM Ca(OH)2, 5 mM EGTA, and 10 mM HEPES at pH 7.40. Stock solution with EGTA contained 150 mM NaCl, 5 mM EGTA, and 10 mM HEPES at pH 7.40. Free Ca^2+ concentrations were adjusted by mixing the stock solutions at the required ratios calculated using the WEBMAXC program (http://web.stanford.edu/~cpatton/webmaxcS.htm). Patch pipettes were filled with the stock solution with Ca^2+-EGTA, which has a free Ca^2+ concentration of 1 mM. 1PBC (ChemBridge) stock was reconstituted in anhydrous DMSO (Sigma-Aldrich) at 100 mM and stored at −20 °C. Working solutions with 1PBC were prepared by serial dilution. Unless otherwise stated, experiments were performed at a saturating Ca^2+ concentration as shown in Supplementary Table 1 and the primary data were corrected for current rundown as described previously[21],[25].
Concentration-response relations, obtained from the ratio of the I-V plots before and after the application of the blocker, were fitted to the Hill equation,1 I/Imax=1/1+IC50/[blocker]^h where I/Imax is the normalized current responses, IC50 defines the concentration at which inhibition is at its half-maximum, and h is the Hill coefficient.

## N#Cc1c(C(F)(F)F)cc(O)n2c1nc1ccccc12 [1PBC]
0 mV, 4 µM Ca2+
  IC50: 193 µM
0 mV, 1PBC conc 10, read-out: relative current in 1PBC (avr)
  remaining activity at 10 µM: 94.4%
0 mV, 1PBC conc 30, read-out: relative current in 1PBC (avr)
  remaining activity at 30 µM: 85.8%
0 mV, 1PBC conc 100, read-out: relative current in 1PBC (avr)
  remaining activity at 100 µM: 66.3%
10 µM 1PBC, +80 mV, saturating Ca2+ (4 µM), read-out: I/Imax
  remaining activity at 10 µM: 95.1%
10 µM 1PBC, -80 mV, saturating Ca2+ (4 µM), read-out: I/Imax
  remaining activity at 10 µM: 92.8%
30 µM 1PBC, +80 mV, saturating Ca2+ (4 µM), read-out: I/Imax
  remaining activity at 30 µM: 87%
30 µM 1PBC, -80 mV, saturating Ca2+ (4 µM), read-out: I/Imax
  remaining activity at 30 µM: 86.9%
100 µM 1PBC, +80 mV, saturating Ca2+ (4 µM), read-out: I/Imax
  remaining activity at 100 µM: 65.4%
100 µM 1PBC, -80 mV, saturating Ca2+ (4 µM), read-out: I/Imax
  remaining activity at 100 µM: 66.1%
20 mV, 4 µM Ca2+
  IC50: 206 µM
20 mV, 1PBC conc 10, read-out: relative current in 1PBC (avr)
  remaining activity at 10 µM: 96.5%
20 mV, 1PBC conc 30, read-out: relative current in 1PBC (avr)
  remaining activity at 30 µM: 87.2%
20 mV, 1PBC conc 100, read-out: relative current in 1PBC (avr)
  remaining activity at 100 µM: 67.1%
40 mV, 4 µM Ca2+
  IC50: 190 µM
40 mV, 1PBC conc 10, read-out: relative current in 1PBC (avr)
  remaining activity at 10 µM: 94.6%
40 mV, 1PBC conc 30, read-out: relative current in 1PBC (avr)
  remaining activity at 30 µM: 87.4%
40 mV, 1PBC conc 100, read-out: relative current in 1PBC (avr)
  remaining activity at 100 µM: 65%
60 mV, 4 µM Ca2+
  IC50: 196 µM
60 mV, 1PBC conc 10, read-out: relative current in 1PBC (avr)
  remaining activity at 10 µM: 95%
60 mV, 1PBC conc 30, read-out: relative current in 1PBC (avr)
  remaining activity at 30 µM: 86.3%
60 mV, 1PBC conc 100, read-out: relative current in 1PBC (avr)
  remaining activity at 100 µM: 66.4%
80 mV
  log-fold IC50 (change of mutant vs WT): 1.991
80 mV, 4 µM Ca2+
  IC50: 192 µM
80 mV, 1PBC conc 10, read-out: relative current in 1PBC (avr)
  remaining activity at 10 µM: 95.1%
80 mV, 1PBC conc 30, read-out: relative current in 1PBC (avr)
  remaining activity at 30 µM: 87%
80 mV, 1PBC conc 100, read-out: relative current in 1PBC (avr)
  remaining activity at 100 µM: 65.4%
100 mV, 4 µM Ca2+
  IC50: 197 µM
100 mV, 1PBC conc 10, read-out: relative current in 1PBC (avr)
  remaining activity at 10 µM: 95.8%
100 mV, 1PBC conc 30, read-out: relative current in 1PBC (avr)
  remaining activity at 30 µM: 87.5%
100 mV, 1PBC conc 100, read-out: relative current in 1PBC (avr)
  remaining activity at 100 µM: 65.8%
120 mV, 4 µM Ca2+
  IC50: 198 µM
120 mV, 1PBC conc 10, read-out: relative current in 1PBC (avr)
  remaining activity at 10 µM: 97.2%
120 mV, 1PBC conc 30, read-out: relative current in 1PBC (avr)
  remaining activity at 30 µM: 88.7%
120 mV, 1PBC conc 100, read-out: relative current in 1PBC (avr)
  remaining activity at 100 µM: 65%
140 mV, 4 µM Ca2+
  IC50: 196 µM
140 mV, 1PBC conc 10, read-out: relative current in 1PBC (avr)
  remaining activity at 10 µM: 97.5%
140 mV, 1PBC conc 30, read-out: relative current in 1PBC (avr)
  remaining activity at 30 µM: 89.1%
140 mV, 1PBC conc 100, read-out: relative current in 1PBC (avr)
  remaining activity at 100 µM: 64.5%
-20 mV, 4 µM Ca2+
  IC50: 180 µM
-20 mV, 1PBC conc 10, read-out: relative current in 1PBC (avr)
  remaining activity at 10 µM: 92.4%
-20 mV, 1PBC conc 30, read-out: relative current in 1PBC (avr)
  remaining activity at 30 µM: 84.5%
-20 mV, 1PBC conc 100, read-out: relative current in 1PBC (avr)
  remaining activity at 100 µM: 65.5%
-40 mV, 4 µM Ca2+
  IC50: 187 µM
-40 mV, 1PBC conc 10, read-out: relative current in 1PBC (avr)
  remaining activity at 10 µM: 93.3%
-40 mV, 1PBC conc 30, read-out: relative current in 1PBC (avr)
  remaining activity at 30 µM: 86.6%
-40 mV, 1PBC conc 100, read-out: relative current in 1PBC (avr)
  remaining activity at 100 µM: 65.2%
-60 mV, 4 µM Ca2+
  IC50: 193 µM
-60 mV, 1PBC conc 10, read-out: relative current in 1PBC (avr)
  remaining activity at 10 µM: 93.8%
-60 mV, 1PBC conc 30, read-out: relative current in 1PBC (avr)
  remaining activity at 30 µM: 84.7%
-60 mV, 1PBC conc 100, read-out: relative current in 1PBC (avr)
  remaining activity at 100 µM: 67.1%
-80 mV, 4 µM Ca2+
  IC50: 193 µM
-80 mV, 1PBC conc 10, read-out: relative current in 1PBC (avr)
  remaining activity at 10 µM: 92.8%
-80 mV, 1PBC conc 30, read-out: relative current in 1PBC (avr)
  remaining activity at 30 µM: 86.9%
-80 mV, 1PBC conc 100, read-out: relative current in 1PBC (avr)
  remaining activity at 100 µM: 66.1%
-100 mV, 4 µM Ca2+
  IC50: 199 µM
-100 mV, 1PBC conc 10, read-out: relative current in 1PBC (avr)
  remaining activity at 10 µM: 95.1%
-100 mV, 1PBC conc 30, read-out: relative current in 1PBC (avr)
  remaining activity at 30 µM: 86.6%
-100 mV, 1PBC conc 100, read-out: relative current in 1PBC (avr)
  remaining activity at 100 µM: 66.7%
-120 mV, 4 µM Ca2+
  IC50: 202 µM
-120 mV, 1PBC conc 10, read-out: relative current in 1PBC (avr)
  remaining activity at 10 µM: 94.9%
-120 mV, 1PBC conc 30, read-out: relative current in 1PBC (avr)
  remaining activity at 30 µM: 86.9%
-120 mV, 1PBC conc 100, read-out: relative current in 1PBC (avr)
  remaining activity at 100 µM: 67%
-140 mV, 4 µM Ca2+
  IC50: 216 µM
-140 mV, 1PBC conc 10, read-out: relative current in 1PBC (avr)
  remaining activity at 10 µM: 96.6%
-140 mV, 1PBC conc 30, read-out: relative current in 1PBC (avr)
  remaining activity at 30 µM: 88.1%
-140 mV, 1PBC conc 100, read-out: relative current in 1PBC (avr)
  remaining activity at 100 µM: 68%
K603Q, V 0 mV
  IC50: 193 µM
K603Q, V 20 mV
  IC50: 206 µM
K603Q, V 40 mV
  IC50: 190 µM
K603Q, V 60 mV
  IC50: 196 µM
K603Q, V 80 mV
  IC50: 192 µM
K603Q, V 100 mV
  IC50: 197 µM
K603Q, V 120 mV
  IC50: 198 µM
K603Q, V 140 mV
  IC50: 196 µM
K603Q, V -20 mV
  IC50: 180 µM
K603Q, V -40 mV
  IC50: 187 µM
K603Q, V -60 mV
  IC50: 193 µM
K603Q, V -80 mV
  IC50: 193 µM
K603Q, V -100 mV
  IC50: 199 µM
K603Q, V -120 mV
  IC50: 202 µM
K603Q, V -140 mV
  IC50: 216 µM
Lys 603 to glutamine
  Lowering of the potency of block vs WT: about 100 fold
